Experimental data reported in patent US11878975B2, “Substituted indole compounds useful as TLR inhibitors” (BRISTOL-MYERS SQUIBB COMPANY, priority 2017, dated 2024).

Experiments:
Assay type in all cases: cell-based
human TLR8 = molecular target: T1, human TLR8 (Homo sapiens, UniProt Q9NR97); experiment: TLR8 inhibition reporter assay (HEK-Blue cells, SEAP reporter, R848 stimulation); settings: HEK-Blue cells overexpressing human TLR8, SEAP reporter, R848 15.9 μM
T1 construct: host or cells: HEK-Blue cells
T1 sequence (Q9NR97 27-1041): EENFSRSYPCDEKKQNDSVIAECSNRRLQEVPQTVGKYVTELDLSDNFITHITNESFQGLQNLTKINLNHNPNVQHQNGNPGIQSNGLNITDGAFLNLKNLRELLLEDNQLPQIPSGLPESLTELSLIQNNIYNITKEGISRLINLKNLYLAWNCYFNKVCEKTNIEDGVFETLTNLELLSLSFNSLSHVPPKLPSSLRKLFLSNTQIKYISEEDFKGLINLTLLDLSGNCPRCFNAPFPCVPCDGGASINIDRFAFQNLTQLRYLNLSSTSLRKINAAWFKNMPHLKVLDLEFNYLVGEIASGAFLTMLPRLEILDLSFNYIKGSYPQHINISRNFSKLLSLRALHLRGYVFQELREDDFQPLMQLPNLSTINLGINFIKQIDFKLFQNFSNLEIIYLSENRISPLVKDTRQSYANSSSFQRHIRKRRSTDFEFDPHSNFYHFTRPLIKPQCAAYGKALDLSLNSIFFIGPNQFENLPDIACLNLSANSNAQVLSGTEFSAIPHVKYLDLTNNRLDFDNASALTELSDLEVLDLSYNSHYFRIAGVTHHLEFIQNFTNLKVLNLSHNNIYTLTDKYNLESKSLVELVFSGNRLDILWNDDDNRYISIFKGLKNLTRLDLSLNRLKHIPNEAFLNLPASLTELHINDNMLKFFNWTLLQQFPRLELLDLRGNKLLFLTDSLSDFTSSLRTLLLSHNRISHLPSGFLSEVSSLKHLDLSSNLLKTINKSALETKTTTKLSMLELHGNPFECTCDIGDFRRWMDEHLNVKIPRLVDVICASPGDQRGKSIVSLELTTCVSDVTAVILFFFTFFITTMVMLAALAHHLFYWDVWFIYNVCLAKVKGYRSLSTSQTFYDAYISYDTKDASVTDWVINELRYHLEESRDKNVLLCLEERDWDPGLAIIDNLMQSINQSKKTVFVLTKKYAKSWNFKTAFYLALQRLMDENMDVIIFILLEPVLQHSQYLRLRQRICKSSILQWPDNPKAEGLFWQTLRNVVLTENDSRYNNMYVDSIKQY
Procedure, shortened: (§1)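 Dose range 0.05 nM–50 μM; 30 min preincubation, RT. Agonists: TLR7 gardiquimod 7.5 μM, TLR8 R848 15.9 μM, TLR9 ODN2006 5 nM. 22 h, 37 °C, 5% CO2. SEAP (IFN-β minimal promoter with NF-κB/AP-1 sites) via colorimetric detection medium; % inhibition vs agonist+DMSO and reference-inhibitor wells.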

human TLR7 = molecular target: T2, human TLR7 (Homo sapiens, UniProt Q9NYK1); experiment: TLR7 inhibition reporter assay (HEK-Blue cells, SEAP reporter, gardiquimod stimulation); settings: HEK-Blue cells overexpressing human TLR7, SEAP reporter, gardiquimod 7.5 μM
T2 construct: host or cells: HEK-Blue cells
T2 sequence (Q9NYK1 27-1049): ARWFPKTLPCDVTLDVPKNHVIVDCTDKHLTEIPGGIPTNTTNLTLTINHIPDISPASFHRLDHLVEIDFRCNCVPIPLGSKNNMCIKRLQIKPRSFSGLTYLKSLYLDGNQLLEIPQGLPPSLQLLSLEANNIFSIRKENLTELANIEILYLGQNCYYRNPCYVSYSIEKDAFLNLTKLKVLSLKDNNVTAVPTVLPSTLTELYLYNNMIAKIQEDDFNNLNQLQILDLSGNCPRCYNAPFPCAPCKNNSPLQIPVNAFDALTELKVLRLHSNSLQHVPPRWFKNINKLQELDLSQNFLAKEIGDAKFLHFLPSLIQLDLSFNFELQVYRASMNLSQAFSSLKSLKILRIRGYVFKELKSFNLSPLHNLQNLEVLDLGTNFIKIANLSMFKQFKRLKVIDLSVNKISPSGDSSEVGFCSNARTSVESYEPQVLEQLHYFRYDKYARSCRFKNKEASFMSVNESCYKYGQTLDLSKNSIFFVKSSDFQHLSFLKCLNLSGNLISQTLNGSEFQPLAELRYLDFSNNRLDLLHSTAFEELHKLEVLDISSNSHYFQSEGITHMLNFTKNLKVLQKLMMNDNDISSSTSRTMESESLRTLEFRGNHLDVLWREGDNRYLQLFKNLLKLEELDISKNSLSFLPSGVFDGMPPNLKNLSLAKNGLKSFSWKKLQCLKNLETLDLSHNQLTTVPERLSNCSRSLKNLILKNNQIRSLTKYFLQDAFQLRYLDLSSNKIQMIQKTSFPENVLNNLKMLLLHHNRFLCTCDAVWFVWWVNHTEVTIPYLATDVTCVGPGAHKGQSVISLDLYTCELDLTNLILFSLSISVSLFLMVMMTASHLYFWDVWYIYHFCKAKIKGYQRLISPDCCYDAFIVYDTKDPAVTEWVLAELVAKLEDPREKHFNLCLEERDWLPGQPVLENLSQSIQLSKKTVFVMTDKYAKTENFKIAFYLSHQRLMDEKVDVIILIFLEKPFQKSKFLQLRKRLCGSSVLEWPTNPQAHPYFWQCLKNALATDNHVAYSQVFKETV
Procedure, shortened: as §1

human TLR9 = molecular target: T3, human TLR9 (Homo sapiens, UniProt Q9NR96); experiment: TLR9 inhibition reporter assay (HEK-Blue cells, SEAP reporter, ODN2006 stimulation); settings: HEK-Blue cells overexpressing human TLR9, SEAP reporter, ODN2006 5 nM
T3 construct: host or cells: HEK-Blue cells
T3 sequence (Q9NR96 26-1032): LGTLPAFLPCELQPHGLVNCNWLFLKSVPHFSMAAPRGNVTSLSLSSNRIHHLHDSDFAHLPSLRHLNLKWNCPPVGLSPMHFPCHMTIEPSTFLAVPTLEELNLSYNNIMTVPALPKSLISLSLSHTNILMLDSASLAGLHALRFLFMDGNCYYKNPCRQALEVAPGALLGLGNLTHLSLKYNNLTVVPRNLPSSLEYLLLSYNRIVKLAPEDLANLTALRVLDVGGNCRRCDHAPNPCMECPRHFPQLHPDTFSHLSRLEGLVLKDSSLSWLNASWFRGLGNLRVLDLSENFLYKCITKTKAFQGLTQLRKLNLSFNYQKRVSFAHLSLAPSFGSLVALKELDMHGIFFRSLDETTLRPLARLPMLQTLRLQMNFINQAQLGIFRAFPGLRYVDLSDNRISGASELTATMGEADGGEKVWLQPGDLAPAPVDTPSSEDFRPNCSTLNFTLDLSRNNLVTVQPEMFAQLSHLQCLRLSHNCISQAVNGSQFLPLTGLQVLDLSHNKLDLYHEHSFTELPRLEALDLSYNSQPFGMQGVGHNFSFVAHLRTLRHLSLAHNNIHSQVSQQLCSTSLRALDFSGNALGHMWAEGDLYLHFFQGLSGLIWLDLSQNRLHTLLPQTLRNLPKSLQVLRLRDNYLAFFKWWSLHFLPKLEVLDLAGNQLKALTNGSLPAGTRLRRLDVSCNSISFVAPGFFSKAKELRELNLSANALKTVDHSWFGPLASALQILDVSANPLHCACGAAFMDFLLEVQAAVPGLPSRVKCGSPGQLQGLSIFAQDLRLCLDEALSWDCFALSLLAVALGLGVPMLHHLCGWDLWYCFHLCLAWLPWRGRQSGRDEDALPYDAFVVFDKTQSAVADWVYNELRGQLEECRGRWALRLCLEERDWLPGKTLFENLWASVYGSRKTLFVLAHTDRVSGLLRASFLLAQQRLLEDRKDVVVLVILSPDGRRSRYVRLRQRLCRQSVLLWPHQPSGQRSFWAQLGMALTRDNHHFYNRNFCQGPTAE
Procedure, shortened: as §1

Compound	IC50 (human TLR8)	IC50 (human TLR7)	IC50 (human TLR9)
Cc1c(-c2[nH]c3ccc(C4CN(CC(N)=O)CCO4)cc3c2C(C)C)cn2ncnc2c1C (stereo not drawn) [Example 319]	24 nM	14 nM	> 50000 nM
COc1cc(-c2[nH]c3ccc(C4CN(C)C4)cc3c2C(C)C)cn2ncnc12 [Example 273]	97 nM	28 nM	5250 nM
Cc1cc(-c2[nH]c3ccc([C@@H]4C[C@H]4C(=O)NC4CC5CCN4CC5)cc3c2C(C)C)ccn1 (stereo partly drawn) [Example 460]	31 nM	51 nM	179 nM
Cc1cc(-c2[nH]c3ccc(C4CCC(N5CCOCC5)CC4)cc3c2C(C)C)cc(C)n1 (stereo not drawn) [Example 498]	18 nM	5 nM	531 nM
Cc1c(-c2[nH]c3ccc(C4CN(C(C)C)C4)cc3c2C(C)C)cn2cnnc2c1C [Example 534]	28 nM	9 nM	7170 nM
Cc1cc(-c2[nH]c3ccc([C@@H]4C[C@H]4C(=O)NC4CC5CCN4CC5)cc3c2C(C)C)ccn1 (stereo partly drawn) [Example 461]	30 nM	86 nM	467 nM
COCC(=O)N1CCCC(c2ccc3[nH]c(-c4cc(C)nc(C)c4)c(C(C)C)c3c2)C1 (stereo not drawn) [Example 205]	402 nM	120 nM	> 50000 nM
Cc1cc(-c2[nH]c3ccc(C4CCC(N5CCN(C)CC5)CC4)cc3c2C(C)C)cc(C)n1 (single isomer, unassigned) [Example 37]	56 nM	29 nM	583 nM
COc1ccc(-c2[nH]c3ccc(C4CCC5CC(C4)N5)cc3c2C(C)C)cc1OC (stereo not drawn) [Example 279, 3-(2-(3.4-dimethoxyphenyl)-3-isopropyl-1H-indol-5-yl)-7-azabicyclo[4.1.1]octane]	73 nM	37 nM	3130 nM

The next compounds have a lower IC50 (human TLR8) than those just listed; values first:

IC50 (human TLR8)	IC50 (human TLR7)	IC50 (human TLR9)	Compound
2.1 nM	2 nM	2670 nM	Cc1cc(-c2[nH]c3ccc(C4CN(C)C(C)(C)CO4)cc3c2C(C)C)cn2ncnc12 (single isomer, unassigned) [Example 376, 2-(3-isopropyl-2-(8-methyl-[1,2,4]triazolo[1,5-a]pyridin-6-yl)-1H-indol-5-yl)-4,5,5-trimethylmorpholine]
11 nM	4 nM	602 nM	CNC1CCC(c2ccc3[nH]c(-c4cc(C)nc(C)c4)c(C(C)C)c3c2)CC1 (single isomer, unassigned) [Example 51]
16 nM	4 nM	1480 nM	COc1cc(-c2[nH]c3ccc(CCC4CNC4)cc3c2C(C)C)cn2ncnc12 [Example 440]
3.8 nM	2 nM	2570 nM	COc1cc(-c2[nH]c3ccc(CCC4CN(CC(C)(C)O)C4)cc3c2C(C)C)cn2ncnc12 [Example 441]
0.59 nM	0.22 nM	1670 nM	COc1cc(-c2[nH]c3ccc(C4CCC(N5CCOCC5)CC4)cc3c2C(C)C)cn2ncnc12 (stereo not drawn) [Example 69]
2.8 nM	2 nM	2380 nM	Cc1cc(-c2[nH]c3ccc(CC4CCCN4Cc4ccccc4)cc3c2C(C)C)cn2ncnc12 (single isomer, unassigned) [Example 396, 5-[(1-benzylpyrrolidin-2-yl)methyl]-2-{8-methyl-[1,2,4]triazolo[1,5-a]pyridin-6-yl}-3-(propan-2-yl)-1H-indole]
15 nM	3 nM	16300 nM	Cc1c(-c2[nH]c3ccc(C4CC5CN(CC#N)CC5C4)cc3c2C(C)C)cn2ncnc2c1C (stereo not drawn) [Example 512]
9.2 nM	34 nM	10300 nM	Cc1c(-c2[nH]c3ccc(C4CN(C(C)C)C4)cc3c2C(C)C)cn(C)c(=O)c1C [Example 482]
14 nM	2 nM	4410 nM	COc1cc(-c2[nH]c3ccc(C4CCC(NC(=O)CN5CCOCC5)CC4)cc3c2C(C)C)cn2ncnc12 (stereo not drawn) [Example 142]
5.1 nM	0.48 nM	2720 nM	Cc1c(-c2[nH]c3ccc(C4CCC(NC5COC5)CC4)cc3c2C(C)C)cn2cnnc2c1C (stereo not drawn) [Example 523]
